Data on 7 molecules can be found in BindingDB's records for patent WO2022112919 (Pfizer, 2022).

The target in the first assay is T1, Transthyretin (Homo sapiens, UniProt P02766). Briefly: Binding of Examples to Transthyretin - EC50 Determination. Here is the method:
TTR SPA binding assays were performed in a final volume of 60 mI containing 100 ng human TTR (biotinylated recombinant protein) coupled to 25 pg SPA beads (streptavidin coated, Perkin Elmer, RPNQ0007) and 50 nM [3H] tafamidis (Moravek, MT-1003033), plus varying concentrations of test compound or vehicle. Briefly, assays were prepared at room temperature in 384-well plates (Corning, 3767) containing 200 nl_ of test compound in DMSO (or DMSO as vehicle). The plates also contained wells with a saturating concentration of unlabeled ligand (200 nl_ of 3 mM tafamidis or 3 mM thyroxine in DMSO) for measuring non-specific binding. Assays were initiated by addition of 20 mI of […] TTR protein in assay buffer (10 mM Tris pH 7.5, 150 mM NaCI, 0.25% Triton X-100) and 20 mI_ of 150 nM [3H] tafamidis in assay buffer. The plates were incubated 1 hour prior to addition of 20 mI_ of 1.25 mg/ml_ SPA beads diluted in assay buffer. The assays were incubated an additional 10 hours to allow binding to reach equilibrium and the amount of receptor-ligand complex was determined by liquid scintillation counting using a 1450 Microbeta Trilux (Wallac). The % effect values for test wells were calculated based on the total binding (vehicle, 0% effect) and non-specific binding (unlabeled ligand, 100% effect) wells on each assay plate. ECso values were then determined using a standard 4 parameter logistic dose response equation.
As a reminder, the EC50 is the concentration that produces a half-maximal response. Lower therefore signals higher potency in that assay. The molecule `COc1cc(-c2c(C)n[nH]c2C)c2ncsc2c1` [WO2022112919, Example 14] returned an EC50 of 25 nM.

With `Cc1[nH]nc(C#N)c1-c1ccc(C(F)(F)F)c2scnc12` [WO2022112919, Example 9], it took 36 nM to reach a half-maximal effect (EC50).

Molecule `Cc1n[nH]c(C)c1-c1cc(F)cc2scnc12` [WO2022112919, Example 15] yielded an EC50 of 21 nM.

The molecule `Cc1cc(-c2c(C)n[nH]c2C)c2ncsc2c1` [WO2022112919, Example 13] registered an EC50 of 21 nM.

As to `Cc1[nH]nc(C#N)c1-c1ccc(C)c2scnc12` [WO2022112919, Example 8], the EC50 was 20 nM.

`Cc1n[nH]c(C)c1-c1cccc2ncsc12` [WO2022112919, Example 2]: the response was half-maximal at 14 nM (EC50).

Another assay concerns the target T1, Transthyretin. Briefly: KD Determination by SPR. The procedure:
Affinity and Reversibility -The binding affinity and kinetics of binding were measured using Surface Plasmon Resonance based binding assay. These experiments were carried out on Bruker SPR MASS-1 and MASS-2 instruments. There was no significant difference in results obtained on both these instruments. Bap-tagged TTR protein was captured on a Streptavidin coated sensor chip to achieve about 2000 to 3000 RUs of surface density. All the samples were prepared in buffer consisting of 10 mM Sodium Phosphate, pH 7.6, 100 mM KCI, 0.005% Tween-20 and 2% DMSO. The same buffer was used as the running buffer during the experiments. Compound samples were injected at a flow rate of 30 pL/min for 90 seconds of association time followed by at least 240 seconds of dissociation period. The compounds were tested in a concentration series consisting of at least 6 samples (usually 10) made with 5-fold, 3-fold, or 2-fold dilution. The highest concentration was […] or selected based on compound binding affinity observed in a previous experiment. […] The data were processed and analyzed using Bruker Analyzer and Scrubber to calculate binding affinities by fitting the data to 1:1 binding model. […] Tafamidis binds to TTR in a reversible manner with calculated residence time of around 40 seconds.
A general note: In SPR one partner is held on a chip, and binding of the other changes the refractive index at the surface.
One may read the Kd as the equilibrium constant for the complex coming apart. A lower Kd goes with a tighter complex. In turn, `Cc1n[nH]c(C)c1-c1ccnc2scnc12` [WO2022112919, Example 19] gave a Kd of 39 nM.

`Cc1n[nH]c(C)c1-c1cccc2ncsc12` [WO2022112919, Example 2] displayed an equilibrium dissociation constant (Kd) of 17 nM.
